# According to ChEMBL document CHEMBL1158893, “New icetexane and 20 norabietane diterpenes with trypanocidal activity from Dracocephalum komarovi” (2003):
# Test system: Trypanosoma cruzi
# Test: Trypanocidal activity against Trypanosoma cruzi epimastigotes
# Type: functional
row,Structure (SMILES),MLC
1,COc1c(O)c2c(c(O)c1C(C)C)C(=O)C[C@H]1[C@]3(C)CCC[C@]21OC3 [DRACOCEPHALONE A],200 µM
2,COC1=C(C(C)C)C(=O)C2=C(C[C@@]34CCCC(C)(C)[C@@H]3C[C@]2(O)O4)C1=O [KOMAROVIQUINONE],0.4 µM
3,CC(C)c1c(O)c2c(c3c1OCO3)C[C@@]1(O)CCCC(C)(C)[C@@H]1CC2=O [CYCLOCOULTERONE],20 µM
4,CN(C)c1ccc(C(=C2C=CC(=[N+](C)C)C=C2)c2ccc(N(C)C)cc2)cc1.[Cl-] [GENTIAN VIOLET],6.3 µM
